By ED50 is commonly meant the dose at which the effect has come halfway, by size or by number of responders.

“Also recorded” adds a separate entry of the source. Structures can show the parent of a compound that is named as a salt. Where two headings read alike, the source gives them in different places. Where only a bound is given, the exact number is not on record here.

The subject of one experiment is mice. As to the kind of experiment: acetic acid mouse writhing test (analgesic effect, s.c.). The following applies: for ED50: mouse acetic acid writhing, s.c., dose reducing the number of writhes by 50%, IA @ dose = inactive at that dose; for analgesic activity: in words; for duration of action: footnote ** to the ED50 value; for analgesic potency relative to TR-5222: more potent than TR-5222 by a factor. The format is in vivo, male CD-1 mice. On the procedure: (A) Analgesic effects upon mice (acetic acid writhing test).
TEST A. ACETIC ACID MOUSE WRITHING TEST
The analgesic effects of test compounds were determined in mice by use of the acetic acid writhing test described by B. J. R. Whittle, Brit. J. Pharmacol., 22:246 (1964). In this test at least three groups of five male CD-1 mice (18-22 g) each were given subcutaneous doses of the test drug dissolved in either distilled water or distilled water acidified with HCl depending on the solubility of the compound. In all cases, 0.4 milliliter of a 0.5% V/V acetic acid in distilled water solution was administered intraperitoneally 15 minutes post drug. The number of writhes in a 20 min. interval beginning 5 minutes after the acetic acid injection were determined and compared with the number of writhes in control groups which had received only acetic acid.
Percent inhibition of writhing was calculated as: [formula]
The ED50 dose, i.e., the dose required to reduce the number of writhes by 50%, was determined graphically from a plot of % inhibition as a probit versus log dose. Confidence limits of 95% were calculated on the basis of those results falling in the range 16-84% inhibition. See Litchfield, J. T. and Wilcoxon, F., J. Pharmacol. Exp. Ther., 96, 99-113, (1949).
(Writhing tests count abdominal constrictions after an irritant is injected.)

Another experiment has as its system rats. As to the kind of experiment: narcotic antagonist activity, modified rat tail flick test against morphine. Set-up: AD50: unit not given here. The following applies: for analgesic (agonist)/narcotic antagonist activity profile / narcotic antagonist activity: in words; for AD50: rat tail flick, dose inhibiting the morphine (ED80 dose s.c.) effect by 50%, IA @ dose = inactive at that dose; for narcotic antagonist potency relative to TR-5222: more potent than TR-5222 by a factor. The format is in vivo, male albino Wistar rats. On the procedure:
(B) Narcotic antagonist activity in rats (modified rat tail flick test).
TEST B. EVALUATION OF NARCOTIC ANTAGONIST ACTIVITY
The narcotic antagonist effects of test compounds were determined by a modification of the rat tail flick procedure of Harris and Pierson (J. Pharmacol. Exp. Ther. 143:141 [1964]).
Male albino Wistar rats (100-120 g) were used for this study. A rat's tail is so placed so as to cover a photocell. Heat is applied by a lamp in a reflector with a timer being connected to the lamp and photocell so that the timer goes on when the light is turned on and is turned off when the photocell is uncovered. A rheostat, incorporated into a heating lamp is used to adjust the intensity of the light falling on the tail of the rat such that the rat's control reaction time is from two to four seconds. Animals with a control reaction time outside this range are rejected. The rheostat adjustment is made only if a significant proportion (more than 2 out of every 10 rats) of the reaction times are outside the range of two to four seconds. Groups of five rats were used each time, and two control times were determined at 60 and 30 minutes prior to subcutaneous injection of the drug.
Thirty minutes after the last control run the test drug was given intraperitoneally. This was followed ten minutes later by an ED80 dose of morphine subcutaneously. The animals were retested at 20 minutes after the morphine injection. Control animals were given vehicle and morphine only. The data were calculated as follows: [formula]
The data were plotted on log-probit paper and AD50 values, i.e., the dose required to inhibit the morphine effect by 50% within 95% confidence limits, were determined by the method of Litchfield and Wilcoxon.

Where [1] appears, read: conclusion from Tests A and B, Hydrochloride.

Regarding `Cl.O=C1CC[C@H]2[C@H]3Cc4ccc(O)cc4[C@@]2(CCN3CC2CCC2)C1` [TR-5153, 17-Cyclobutylmethyl-3-hydroxymorphinan-6-one Hydrochloride, reference compound], in the experiment with mice (sc, read-out: ED50), the 50% effective dose (ED50) was found to be 0.017 mg/kg. The “analgesic (agonist)/narcotic antagonist activity profile” value with rats (setting [1]) is reported as “pure agonist; also recorded: pure analgesic”. In addition, the AD50 result in the experiment with rats is recorded as “IA @ 10”.

On to `CC[C@H]1CC(=O)C[C@]23CCN(CC4CCC4)[C@H](Cc4ccc(O)cc42)[C@H]13.Cl` [TR-5200, 17-Cyclobutylmethyl-8β-ethyl-3-hydroxy-morphinan-6-one Hydrochloride], for which the analgesic activity result in the experiment on mice is “potent activity”. For the same compound, in the experiment on mice (sc, read-out: ED50), the ED50 turned out to be 0.21 mg/kg. In the experiment with rats, the narcotic antagonist activity result is given as “potent activity” and the AD50 amounted to 0.32.

Turning to `COc1ccc2c(c1)[C@]13CCN(CC4CC4)[C@H](C2)[C@@H]1[C@@H](C)CC(=O)C3` [TR-5119, 17-Cyclopropylmethyl-3-Methoxy-8β-Methylmorphinan-6-one], the analgesic activity result in the experiment with mice is on record as “good activity”. For the same compound, in the experiment with mice (sc, read-out: ED50), the ED50 stood at 0.24 mg/kg. In the experiment with rats, the narcotic antagonist activity result is on record as “good activity” and the AD50 is on record as 1.45.

On to `CC[C@H]1[C@@H]2[C@H]3Cc4ccc(O)cc4[C@@]2(CCN3CC2CCC2)CC(=O)[C@@H]1C` [TR-5370, 17-Cyclobutylmethyl-8α-ethyl-3-hydroxy-7β-methyl-isomorphinan-6-one Hydrochloride], for which, in the experiment on mice, the analgesic activity result was “essentially inactive” and the ED50 result is recorded as “IA @ 10”. Further, in the experiment with rats, the narcotic antagonist activity entry was “essentially inactive” and the AD50 was greater than 10.

Turning to `C[C@@H]1[C@H]2[C@H]3Cc4ccc(O)cc4[C@@]2(CCN3CC2CCC2)CC(=O)[C@H]1C` [TR-5195, 17-Cyclobutylmethyl-7α,8β-dimethyl-3-hydroxymorphinan-6-one], the ED50 with mice (sc, read-out: ED50) was 0.78 mg/kg. For the same compound, in the experiment on rats (conclusion from Tests A and B), the “analgesic (agonist)/narcotic antagonist activity profile” value is “analgesic and narcotic antagonist activity”. Besides, the AD50 in the experiment on rats amounted to 2.0.

Turning to `O=C1CC[C@@H]2[C@H]3Cc4ccc(O)cc4[C@@]2(CCN3CC2CC2)C1` [TR-5222, 17-Cyclopropylmethyl-3-hydroxy-isomorphinan-6-one Hydrochloride, reference compound], the “duration of action” value in the experiment on mice is “short acting”. Besides, the ED50 with mice (sc, read-out: ED50) is 3.11 mg/kg. In addition, in the experiment with rats (conclusion from Tests A and B), the “analgesic (agonist)/narcotic antagonist activity profile” value was “mixed analgesic and narcotic antagonist activity”. The compound further came in with an AD50 in the experiment with rats of 0.78.

For the compound `COc1ccc2c(c1)[C@]13CCN(CC4CCC4)[C@H](C2)[C@@H]1[C@@H](C)CC(=O)C3.Cl` [TR-5132, 17-Cyclobutylmethyl-3-methoxy-8β-methylmorphinan-6-one Hydrochloride], the analgesic activity entry in the experiment with mice is on record as “good activity”. The ED50 in the experiment with mice (sc, read-out: ED50) was found to be 0.54 mg/kg. In the experiment with rats, the narcotic antagonist activity result is reported as “good activity” and the AD50 turned out to be 6.4.

With `COc1ccc2c(c1)[C@]13CCN(CC4CCC4)[C@H](C2)[C@@H]1CCC(=O)C3.Cl` [TR-5148, 17-Cyclobutylmethyl-3-methoxymorphinan-6-one Hydrochloride, reference compound], in the experiment with mice, the analgesic activity result is given as “potent analgesic”. The ED50 in the experiment with mice (sc, read-out: ED50) worked out at 0.22 mg/kg. Besides, in the experiment with rats, the narcotic antagonist activity entry was “does not exhibit activity as a narcotic antagonist” and the AD50 result is listed as “IA @ 10”.

Regarding `CC[C@@H]1[C@H]2[C@H]3Cc4ccc(O)cc4[C@@]2(CCN3CC2CCC2)CC(=O)[C@H]1C` [TR-5333, 17-Cyclobutylmethyl-8β-ethyl-3-hydroxy-7α-methyl-morphinan-6-one], in the experiment with mice (sc, read-out: ED50), the ED50 turned out to be 3.3 mg/kg. Further, the “analgesic (agonist)/narcotic antagonist activity profile” value with rats (conclusion from Tests A and B) is “both analgesic and narcotic antagonist activity”. Moreover, the AD50 in the experiment on rats was determined as 1.95.

With `COc1ccc2c(c1)[C@]13CCN(CC4CC4)[C@H](C2)[C@H]1[C@H](C)[C@@H](C)C(=O)C3` [TR-5331, 17-Cyclopropylmethyl-7β,8α-dimethyl-3-methoxy-isomorphinan-6-one Hydrochloride], the analgesic activity entry in the experiment with mice is “essentially inactive”. The ED50 with mice (sc, read-out: ED50) is greater than 10 mg/kg. In the experiment with rats, the narcotic antagonist activity result is “essentially inactive” and the AD50 is listed as greater than 10.

Consider `O=C1CC[C@H]2[C@H]3Cc4ccc(O)cc4[C@@]2(CCN3CC2CC2)C1` [TR-5160, 17-Cyclopropylmethyl-3-hydroxy morphinan-6-one, reference compound], for which the ED50 with mice (sc, read-out: ED50) worked out at 1.02 mg/kg. In the experiment on rats, this compound displayed an AD50 of 2.3.

As to `C[C@@H]1C[C@@H]2[C@H]3Cc4ccc(O)cc4[C@@]2(CCN3CC2CC2)CC1=O` [TR-5225, 17-Cyclopropylmethyl-3-hydroxy-7β-methyl-isomorphinan-6-one Hydrobromide], in the experiment on mice, the “duration of action” value is “short acting” and the “analgesic potency relative to TR-5222” value is given as “greater than four”. In the experiment with mice (sc, read-out: ED50), the ED50 turned out to be 0.72 mg/kg. The “analgesic potency relative to TR-5205” value in the experiment on mice (vs TR-5205) is given as “much more potent”. In the experiment on rats, the “narcotic antagonist potency relative to TR-5222” value is given as “approximately 2” and the AD50 was 0.48. In the experiment on rats (vs TR-5205), the “narcotic antagonist potency relative to TR-5205” value is “approximately twice as potent”.

Take `O=C1CC[C@@H]2[C@H]3Cc4ccc(O)cc4[C@@]2(CCN3CC2CCC2)C1` [TR-5223, 17-Cyclobutylmethyl-3-hydroxy-isomorphinan-6-one Hydrochloride, reference compound]: in the experiment with mice (sc, read-out: ED50), the ED50 is 0.94 mg/kg. Further, the “analgesic potency relative to TR-5200” value in the experiment with mice (vs TR-5200) is “significantly less potent”. Further, in the experiment on rats (setting [1]), the “analgesic (agonist)/narcotic antagonist activity profile” value is recorded as “mixed agonist/antagonist activity; also recorded: mixed analgesic/narcotic antagonist activity”. The compound also had an AD50 with rats of 5.0. Moreover, the “mixed agonist/antagonist activity relative to TR-5130” value in the experiment on rats (vs TR-5130, conclusion from Tests A and B) is listed as “substantially less than that of TR-5130”. In addition, the “narcotic antagonist potency relative to TR-5200” value with rats (vs TR-5200) was “significantly less potent”.

In the case of `COc1ccc2c(c1)[C@]13CCN(CC4CC4)[C@H](C2)[C@H]1C[C@@H](C)C(=O)C3` [TR-5205, 17-Cyclopropylmethyl-3-methoxy-7β-methyl-isomorphinan-6-one Hydrochloride], the ED50 with mice (sc, read-out: ED50) is greater than 15 mg/kg. In addition, in the experiment on rats, the AD50 is 1.2.

Turning to `COc1ccc2c(c1)[C@]13CCN(CC4CC4)[C@H](C2)[C@@H]1CCC(=O)C3` [TR-5152, 17-Cyclopropylmethyl-3-methoxymorphinan-6-one Hydrochloride, reference compound], the ED50 in the experiment on mice (sc, read-out: ED50) came to 0.24 mg/kg. Also, in the experiment with rats, the AD50 was 5.4.

Take `CCC[C@H]1CC(=O)C[C@]23CCN(CC4CCC4)[C@H](Cc4ccc(O)cc42)[C@H]13.Cl` [TR-5204, 17-Cyclobutylmethyl-3-hydroxy-8β-n-propylmorphinan-6-one Hydrochloride]: the ED50 in the experiment on mice (sc, read-out: ED50) was determined as 0.43 mg/kg. For the same compound, in the experiment with mice (vs TR-5223), the “analgesic potency relative to TR-5223” value is on record as “substantially more potent”. In addition, the “analgesic (agonist)/narcotic antagonist activity profile” value with rats (conclusion from Tests A and B) is listed as “mixed analgesic/narcotic antagonist”. Further, in the experiment with rats, the AD50 is recorded as 3.10. Besides, the “narcotic antagonist potency relative to TR-5223” value in the experiment with rats (vs TR-5223) is recorded as “substantially more potent”.

For `COc1ccc2c(c1)[C@]13CCN(CC4CCC4)[C@H](C2)[C@H]1[C@H](C)[C@@H](C)C(=O)C3` [TR-5332, 17-Cyclobutylmethyl-7β,8α-dimethyl-3-methoxy-isomorphinan-6-one Hydrochloride], the ED50 in the experiment with mice (sc, read-out: ED50) was greater than 10 mg/kg. The compound also had an AD50 in the experiment with rats greater than 10.

For `C[C@H]1[C@@H]2[C@H]3Cc4ccc(O)cc4[C@@]2(CCN3CC2CC2)CC(=O)[C@@H]1C` [TR-5343, 17-Cyclopropylmethyl-7β,8α-dimethyl-3-hydroxy-isomorphinan-6-one Hydrobromide], the “analgesic potency relative to TR-5222” value in the experiment on mice was “approximately two”. In addition, the median effective dose (ED50) with mice (sc, read-out: ED50) worked out at 1.89 mg/kg. The “analgesic potency relative to TR-5196” value with mice (times as potent as geometric isomer TR-5196) is listed as “approximately 4 times”. The “analgesic (agonist)/narcotic antagonist activity profile” value with rats (conclusion from Tests A and B) is “mixed analgesic and narcotic antagonist activity”. In the experiment with rats, the “narcotic antagonist potency relative to TR-5222” value is on record as “approximately two” and the AD50 is given as 0.43. For the same compound, in the experiment on rats (vs geometric isomer TR-5196), the “narcotic antagonist potency relative to TR-5196” value is listed as “somewhat less potent”.
